Measured values from patent US9334280B2, “Synthetic rigidin analogues as anticancer agents, salts, solvates and prodrugs thereof, and method of producing same” (New Mexico Technical Research Foundation, priority 2012, dated 2016).

Columns and labels:
[1] = test system: UM-SCC10B head and neck metastases cells; experiment: MTT antiproliferative assay, UM-SCC10B; format: cell-based; settings: Table 1A, 48 h, read-out: Concentration required to reduce the viability of cells by 50%, UM-SCC10B
Method: (§1) To evaluate antiproliferative properties of the compounds of Formula I, mitochondrial dehydrogenase activities were measured using the MTT assay. The cell lines were prepared by trypsinizing and seeding […] cells per well into microplates. All compounds were reconstituted in dimethyl sulfoxide (DMSO) at a concentration of either 100 mM or 25 mM prior to treatment. The cells were grown for 24 hrs before treatment at concentrations ranging from 0.004 to 100 microM and incubated for 48 hrs in 200 microL media. 20 microL of MTT reagent in serum free medium (5 mg/mL) was added to each well and incubated further for 2 hrs. Media was removed and the resulting formazan crystals were re-solubilized in 100 microL of DMSO and the optical density (OD) was measured using a Thermomax Molecular Device plate reader at a wavelength of 490 nm. The experiments were performed in quadruplicate and repeated at least twice for each compound per cell line. Cells treated with 0.1% DMSO were used as a negative control, while phenyl arsine oxide (PAO) was used as a positive killing control.

U373 glioblastoma cells = experiment: MTT antiproliferative assay, U373; format: cell-based, human; settings: Homo sapiens, U373 MG; Table 2; 48 h, MTT; read-out: GI50 in vitro values, U373
Method: as §1
Human cancer cell lines were obtained from the American Type Culture Collection (ATCC, Manassas, Va., USA), the European Collection of Cell Culture (ECACC, Salisbury, UK) and the Deutsche Sammlung von Mikroorganismen and Zellkulturen (DSMZ, Braunschweig, Germany). Human cervical adenocarcinoma HeLa cells were cultured in DMEM supplemented with 10% fetal bovine serum (FBS). Human mammary carcinoma MCF-7 cells were cultured in RPMI supplemented with 10% FBS. The U87 and U373 cells were cultured in DMEM culture medium (Lonza code 12-136F, Vervier, Belgium), while the SKMEL-28 and A549 cells were cultured in RPMI culture medium (Lonza; code 12-115F) supplemented with 10% heat-inactivated FBS (Lonza, FBS South America code DE14-801F). […] All cell lines were cultured in T25 flasks, maintained and grown at 37° C., 95% humidity, 5% CO2.
To evaluate antiproliferative properties of the synthesized compounds, the MTT assay was used. The cell lines were assessed by trypsinizing each cell line and seeding 4×10^3 cells per well into 96-well plates. All compounds were dissolved in DMSO at a concentration of either 100 mM or 50 mM prior to cell treatment. The cells were grown for 24 h and then treated with compounds at concentrations ranging from 0.04 to 100 μM and incubated for 48 h in 200 μL media. 20 μL of MTT reagent in serum free medium (5 mg/mL) was added to each well and incubated further for 2 h. Media was removed, and the resulting formazan crystals were re-solubilized in 200 μL of DMSO. A490 was measured using a Thermomax Molecular Device plate reader. The experiments were performed in quadruplicate and repeated at least twice for each compound per cell line. […]

[2] = test system: Hs683 anaplastic oligodendroglioma cells; experiment: MTT antiproliferative assay, Hs683; format: cell-based; settings: Homo sapiens, Hs 683, Table 2, 48 h, read-out: GI50 in vitro values, Hs683
Method: as §1

HeLa cells = experiment: Flow cytometric cell cycle analysis (Vybrant Orange); format: cell-based, human; settings: 24 h
Method: To assess the effects of the analogues on the cell cycle, cell cycle analysis was performed. 70-80% confluent HeLa cells were trypsinized and seeded at an initial density of 2×10^5 cell per well into 6 well plates in DMEM supplemented with 10% FBS, 100 mg/L penicillin G and 100 mg/L streptomycin. The cells were allowed to adhere overnight and before treatment with compounds of Formula I at concentrations ranging from 0.1 to 10 microM. After 24 hrs, the cells were washed 3× with DMEM, trypsinized, pelleted, and re-suspended in 200 microL of culture medium containing 10 microM (2 microL/mL) vybrant orange dye. The samples in the labeling solution were transferred into Falcon tubes and incubated in a water bath for 30 mins at 37° C. The samples were then analyzed using a Becton Dickinson FACscan flow cytometer with CellQuest software. A 488 nm laser was utilized using parameters that can be found in Appendix B; 10,000 events were collected for analysis. Cells treated with 0.1% DMSO were used as a negative control and cells treated with colchicine were used as a positive control.
In further anticancer evaluation of compounds of Formula I cell cycle analysis was performed using the cell permeable DNA binding dye Vybrant Orange. In a normal population, cells are distributed among the three major phases of the cell cycle, G0/G1 in which there is one set of paired chromosomes per cell (2n), followed by the S or synthesis phase in which DNA is synthesized in preparation for division (there is a variable amount of DNA present during this phase) and finally G2/M phase in which the chromosomes of each cell have now been duplicated (4n). This DNA content can be measured using fluorescent DNA selective probes such as Vybrant Orange that produce signals that are proportional to DNA mass per cell. This dye interacts with double stranded DNA (dsDNA) in living cells and becomes fluorescent upon binding and thus can be used to track DNA content as cells progress through the various phases of the cell cycle using flow cytometry. Cell cycle analysis was performed on HeLa cells using Rig8 at various concentrations above and below the respective GI50. Since colchicine is a known antimitotic drug, it was utilized as a positive control, while HeLa cells treated with 0.1% DMSO were used as a negative control. FIG. 6 illustrates the results of this analysis using Rig 8 on HeLa cells.

## O=C(c1ccccc1)c1[nH]c2[nH]cnc(=O)c2c1-c1cc(Br)cc(Br)c1 [Rig8, 6-Benzoyl-5-(3,5-dibromophenyl)-1H-pyrrolo[2,3-d]pyrimidin-4(7H)-one]
[1]
  IC50: 0.1 µM
U373 glioblastoma cells
  GI50: 0.03 µM
[2]
  GI50: 0.02 µM
HeLa cells; 0.1 μM
  % Relative DNA Content, G0/G1: 51.5 ± 4.3%
  % Relative DNA Content, G2/M: 36.6 ± 4.6%
  % Relative DNA Content, S: 14.1 ± 3.9%
HeLa cells; 1 μM
  % Relative DNA Content, G0/G1: 12.7 ± 2.2%
  % Relative DNA Content, G2/M: 73.4 ± 5.3%
  % Relative DNA Content, S: 9.7 ± 2.4%
HeLa cells; 10 μM
  % Relative DNA Content, G0/G1: 5.6 ± 2.2%
  % Relative DNA Content, G2/M: 85.9 ± 2.1%
  % Relative DNA Content, S: 5.3 ± 2.4%
HeLa cells; 0.1-10 μM
  cell cycle arrest (in words): dose-dependent cell cycle arrest in the G2/M phase
